Assay results published in patent US5817648A, “Vitamin D3 analogues having an unsaturated side chain” (Duphar International Research B.V., priority 1995, dated 1998).

Key:
[1] = system: Vitamin D binding protein (DBP); assay: Affinity to vitamin D binding protein (competition with 3H-1α,25-DHCC); conditions: DBP purified from total human serum
Protocol: Vitamin D binding protein (DBP) is the specific carrier for vitamin D and its metabolites in blood. The biological activity of vitamin D compounds depends on their binding to DBP, because strong binding to DBP will reduce the intracellular access to the VDR. Binding to the DBP may also influence the half-life of the vitamin D derivatives in circulation. Weak binders are rapidly metabolized, which is a favourable aspect in topical application.
In the assay, DBP is incubated with ^3 H-1α,25-DHCC and 1α,25-DHCC or with the vitamin D compounds to be investigated. To this purpose, the vitamin compounds are dissolved in ethanol in concentrations ranging from 10^-11 to […]. The percentage bound/unbound ^3 H-1α,25-DHCC is then calculated. DBP is purified from total human serum. Both 24,24-dihomo-.increment.(24-24a)-calcitriol and 24,24-dihomo-.increment.(24a-24b)-calcitriol are much weaker binders to the DBP than calcitriol (2% and 3.5% respectively).

[2] = molecular target: T1, calf thymus intracellular vitamin D receptor (VDR) (Bos taurus, UniProt Q28037); assay: Affinity to intracellular vitamin D receptor (displacement of 3H-1α,25-DHCC); format: binding
T1 construct: calf thymus intracellular vitamin D receptor (VDR); from tissue; host or cells: calf thymus
T1 sequence (Q28037 1-426): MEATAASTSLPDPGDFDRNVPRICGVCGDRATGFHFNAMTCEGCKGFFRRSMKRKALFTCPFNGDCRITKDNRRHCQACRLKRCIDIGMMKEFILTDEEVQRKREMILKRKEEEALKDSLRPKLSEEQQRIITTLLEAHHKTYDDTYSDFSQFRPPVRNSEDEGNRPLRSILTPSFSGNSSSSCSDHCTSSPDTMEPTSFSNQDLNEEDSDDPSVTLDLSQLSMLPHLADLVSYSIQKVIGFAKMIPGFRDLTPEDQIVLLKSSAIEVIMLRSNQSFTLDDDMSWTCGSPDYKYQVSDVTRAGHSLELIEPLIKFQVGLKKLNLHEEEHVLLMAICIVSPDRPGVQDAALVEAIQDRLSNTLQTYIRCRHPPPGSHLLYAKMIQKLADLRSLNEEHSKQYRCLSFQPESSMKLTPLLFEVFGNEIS
Description: In this assay, ^3 H-1α,25-dihydroxycholecalciferol (^3 H-1α,25-DHCC), which is specifically bound to the VDR, is replaced by the tested compounds. […] 9 times that of calcitriol. A high affinity towards the VDR is indicative for biologically active compounds.

[3] = system: human leukemic cell line HL-60; assay: Cell differentiation in HL-60 assay (NBT reduction); format: cell-based; conditions: compared with calcitriol
Protocol: The vitamin D compounds to be investigated are dissolved in ethanol in concentrations ranging from 10^-12 to 10^-6 M and tested for their capacity to induce cell differentiation in a HL-60 assay. In this assay, biochemical examination of the human leukemic cell line HL-60 is performed, in order to establish whether cell differentiation has taken place.
Differentiation is expressed as the maturation parameter nitroblue tetrazolium (NBT) reduction. After culturing with the known calcitriol or with the vitamin D compounds to be investigated, the percentage of cells containing black formazan deposits is determined. An increase in the percentage of NBT reducing cells indicates an increase in cell differentiation.
Proliferation and vitality of the cell cultures are established by counting the number of cells and by the trypan blue exclusion method.

Row | Structure (SMILES) | binding to the DBP relative to calcitriol [1] [%] | affinity towards the VDR, times that of calcitriol [2] | activity in inducing differentiation and maturation of the HL-60 cells (in words) [3] | affinity towards the VDR relative to calcitriol ([2]; relative to calcitriol) [%] | activity in inducing differentiation of HL-60 cells, times less active than calcitriol [3] [times less active]
1 | C=C1/C(=C\C=C2/CCC[C@]3(C)[C@@H]([C@H](C)CCC/C=C/C(C)(C)O)CC[C@@H]23)C[C@@H](O)C[C@@H]1O [Compound 16, (5Z,7E)-(1S,3R)-9,10-Seco-24a,24b-dihomo-(24aE)-5,7,10(19),24a-cholestatetraen-1,3,25-triol] | 3.5 | 9 times that of calcitriol | equally active | – | –
2 | C=C1/C(=C\C=C2/CCC[C@]3(C)[C@@H]([C@H](C)CC/C=C/CC(C)(C)O)CC[C@@H]23)C[C@@H](O)C[C@@H]1O [24,24-dihomo-.increment.(24-24a)calcitriol] | 2 | – | – | ≤ 1 | 4
3 | C=C1/C(=C\C=C2/CCC[C@]3(C)[C@@H]([C@H](C)CCCC(C)(C)O)CC[C@@H]23)C[C@@H](O)C[C@@H]1O [Calcitriol, calcitriol] | – | – | equally active | – | –
